± gives the expanded uncertainty stated by the source.
Experiment: xn = mol fraction of the nth substance listed
Conditions: 101 kPa, Liquid; for speed of sound: Frequency=2 MHz, Linear variable-path acoustic interferometer; for viscosity: Oscillating disk viscometry; for mass density: Vibrating tube method

C[NH+](C)C.O=S(=O)([O-])O [trimethylammonium hydrogen sulfate] + C[S+](C)[O-]
Conditions	mass density, 308.15 K [kg/m3]	mass density, 313.15 K [kg/m3]	speed of sound, 308.15 K [m/s]	speed of sound, 313.15 K [m/s]	viscosity, 308.15 K [mPa·s]	viscosity, 313.15 K [mPa·s]
x1 = 0.013	1093.72 ± 1	1089.1 ± 1	1462 ± 3	1447 ± 3	1.75 ± 0.11	1.64 ± 0.1
x1 = 0.0356	1106.81 ± 1	1102.07 ± 1	1466 ± 3	1449 ± 3	1.88 ± 0.12	1.75 ± 0.11
x1 = 0.0539	1116.99 ± 1.1	1112.21 ± 1	1469 ± 3	1452 ± 3	1.99 ± 0.12	1.85 ± 0.12
x1 = 0.0982	1141.18 ± 1.1	1136.31 ± 1.1	1476 ± 3	1460 ± 3	2.23 ± 0.14	2.06 ± 0.13
x1 = 0.1259	1155.67 ± 1.1	1150.73 ± 1.1	1478 ± 3	1464 ± 3	2.35 ± 0.15	2.17 ± 0.14
x1 = 0.1608	1173.53 ± 1.1	1168.35 ± 1.1	1484 ± 3	1471 ± 3	2.51 ± 0.16	2.31 ± 0.15
x1 = 0.1982	1191.94 ± 1.1	1186.62 ± 1.1	1490 ± 3	1476 ± 3	2.67 ± 0.17	2.45 ± 0.16
x1 = 0.2422	1212.56 ± 1.1	1207.12 ± 1.1	1494 ± 3	1483 ± 3	2.82 ± 0.18	2.56 ± 0.16
x1 = 0.2956	1236.49 ± 1.1	1230.97 ± 1.1	1500 ± 3	1490 ± 3	3 ± 0.19	2.7 ± 0.17
x1 = 0.3855	1274.01 ± 1.1	1268.16 ± 1.1	1510 ± 3	1501 ± 3	3.24 ± 0.21	2.88 ± 0.19
x1 = 0.4611	1303.22 ± 1.1	1297.1 ± 1.1	1516 ± 3	1510 ± 3	3.41 ± 0.22	3 ± 0.2
x1 = 0.545	1333.32 ± 1.1	1326.92 ± 1.1	1524 ± 3	1516 ± 3	3.54 ± 0.23	3.08 ± 0.21
x1 = 0.6387	1364.4 ± 1.1	1357.69 ± 1.1	1530 ± 3	1525 ± 3	3.68 ± 0.24	3.14 ± 0.22
x1 = 0.7076	1385.63 ± 1.1	1378.66 ± 1.1	1534 ± 3	1530 ± 3	3.73 ± 0.25	3.16 ± 0.22
x1 = 0.7823	1407.49 ± 1.1	1400.24 ± 1.1	1538 ± 3	1536 ± 3	3.81 ± 0.25	3.18 ± 0.23
x1 = 0.8444	1424.52 ± 1.1	1417.09 ± 1.1	1544 ± 3	1540 ± 3	3.85 ± 0.26	3.18 ± 0.23
x1 = 0.907	1440.98 ± 1.1	1433.37 ± 1.1	1547 ± 3	1545 ± 3	3.88 ± 0.26	3.18 ± 0.24
x1 = 0.9524	1452.15 ± 1.1	1444.43 ± 1.1	1552 ± 3	1549 ± 3	3.92 ± 0.27	3.17 ± 0.24
x1 = 1	1463.5 ± 1.2	1455.63 ± 1.2	1556 ± 3	1552 ± 3	3.94 ± 0.27	3.16 ± 0.25
